Structures are written as SMILES.

The data set in a line: Human HepG2 cell viability assay in 384 well format. Type of data set: toxicity, cell-based. Set-up: dose 125 nL, time 70.5 hour; cytotoxicity at 70.5 h: concentration not given beside the values. Particulars: HepG2 cells, read-out: Inhibition.
On to `CCC(Nc1nc(C)nc2onc(C)c12)c1nc(C)c(C)s1` (stereo not drawn), for which the cytotoxicity at 70.5 h was 24.7%.
The figure for `COCCCN(Cc1ccncc1)c1ncc(C#N)cc1Cl` is -0.375%; for `COc1cccc(OC2CN(C(=O)Cn3nc4ccccc4n3)C2)c1` it is -5.28%.
Regarding `CNS(=O)(=O)c1cccc(C(C)NCc2ccc(C)c(C)c2)c1` (stereo not drawn), the cytotoxicity at 70.5 h was determined as 19.3%.
The figure for `Cc1nc2cc(C(=O)N3C[C@@H](C(=O)O)[C@H](C4CC4)C3)ccc2[nH]1` is -3.58%; for `CCc1cc(NC2CCN(Cc3ccccc3F)CC2)n2nccc2n1` it is -16.6%.
In the case of `Cc1ccccc1CNC(=O)C1CCN(Cc2nccn2C)CC1`, the cytotoxicity at 70.5 h is -0.376%.
`CSc1ncccc1C(=O)N1CCC2(CC1)OCCCC2O` (stereo not drawn): the cytotoxicity at 70.5 h is -3.78%.
The figure for `c1cnc(N2CCCC(Cc3nccs3)C2)nc1` (stereo not drawn) is -3.8%; for `CCOc1ccc(C#N)cc1NCC(=O)NC(=O)NC` it is -3.9%.
Turning to `CC(=O)c1cccc(-c2nc3c([nH]2)CCNC3)c1F`, the cytotoxicity at 70.5 h is -13.2%.
On to `O=C(NC[C@]1(O)CCN(Cc2ccsc2)C[C@H]1O)c1c[nH]cn1`, for which the cytotoxicity at 70.5 h was -9.1%.
In the case of `CC1(C)COCCN1C(=O)CCc1nc(-c2ccncc2)no1`, the cytotoxicity at 70.5 h is 4.51%.
As to `Cc1ccc(C(C)C(=O)N2CCCN(Cc3cscn3)CC2)cc1` (stereo not drawn), the cytotoxicity at 70.5 h stood at 5.25%.
Turning to `Cn1cc(CN2CCC3(C2)CN(Cc2ccsc2)C3)cn1`, the cytotoxicity at 70.5 h is -6.34%.
As to `CNC(=O)[C@@H]1C[C@@H](N)CN1Cc1ccc2cccc(OC)c2n1`, the cytotoxicity at 70.5 h is -2.31%.
The figure for `CN(CC(=O)Nc1cnn(-c2ccccc2S(C)(=O)=O)c1)C1CC1` is -3.94%.
As to `N#CC1(C(=O)N2C[C@H](Nc3ncccn3)[C@@H](C3CC3)C2)CCOCC1`, the cytotoxicity at 70.5 h is -15.6%.
`NC(=O)CC1CCN(S(=O)(=O)N2CCCC2c2ccco2)CC1` (stereo not drawn): the cytotoxicity at 70.5 h was -5.7%.
The figure for `O=C(Cn1cnnn1)NC(c1ccccc1)c1ccc2c(c1)CCCO2` (stereo not drawn) is 24.4%; for `Cc1nn(C)c(N(C)C)c1CNCc1cccnc1-n1cncn1` it is -5.08%; for `CC1(C)CCC(C(=O)N2CCCO2)c2ccccc21` (stereo not drawn) it is 9.21%.
For the molecule `CC(C)c1cccc(N2CCCC3(CCC(=O)N(C4CC4)C3)C2)n1` (stereo not drawn), the cytotoxicity at 70.5 h was -1.84%.
Take `CC(=O)N1CCC(c2nc(C)cc(-c3ccccc3C(=O)O)n2)CC1`: the cytotoxicity at 70.5 h was -3.01%.
The figure for `Cc1ccccc1C(=O)Nc1ccc([C@H]2OCC(=O)N(C)[C@@H]2CO)cc1` is -0.197%; for `O=C(NCCN1CCOCC1)NCc1ncc(-c2ccccc2)o1` it is -11.5%; for `OC(c1cnn(-c2ccccc2)c1)C(F)(F)F` (stereo not drawn) it is -1.66%.
With `COc1ccc(OC2CCN(Cc3ccn(C)c(=O)c3)CC2)cc1`, the cytotoxicity at 70.5 h came out at 0.479%.
For the molecule `CO[C@@H]1CN(Cc2scnc2C)[C@@H]2CCCO[C@@H]21`, the cytotoxicity at 70.5 h was -4.62%.
Take `Cc1n[nH]/c(=N\C(=O)c2c3c(nc4onc(C)c24)CCC3)s1`: the cytotoxicity at 70.5 h was -13.7%.
Regarding `CCCc1nnc2sc(C3CCN(CCOC)CC3)nn12`, the cytotoxicity at 70.5 h is -3.34%.
Turning to `Cn1nc2c(cc1=O)CN(CCN1CCCC1=O)CC2`, the cytotoxicity at 70.5 h is -1.09%.
For the molecule `CC(C(=O)N(C)Cc1nnc2n1CCC2)S(C)(=O)=O` (stereo not drawn), the cytotoxicity at 70.5 h was -1.23%.
The figure for `Cn1cc(C(=O)NC2CCN(C(=O)NCCSC(F)(F)F)CC2)cn1` is -1.82%.
With `CCOCCCOC(=O)c1ccc2c(c1)[nH]c(=O)n2C`, the cytotoxicity at 70.5 h was 18.6%.
Consider `C1CCC(N2CCCN(c3nc(C4CC4)no3)CC2)C1`, for which the cytotoxicity at 70.5 h was 0.93%.
Consider `COCC(=O)N1CCC2(CCc3ccc(F)cc32)CC1`, for which the cytotoxicity at 70.5 h was -2.02%.
Regarding `Cc1noc(CN(C)C2CCCN(Cc3noc(C4CC4)n3)C2)n1` (stereo not drawn), the cytotoxicity at 70.5 h is -10.7%.
Regarding `Cc1noc(C)c1CN1CC[C@@H]2O[C@@H](COCC(C)C)CC[C@@H]21`, the cytotoxicity at 70.5 h turned out to be 3.11%.
On to `CN(Cc1cccnc1)[C@@H]1CN(c2ncc(F)cn2)[C@@H]2CCCO[C@H]12`, for which the cytotoxicity at 70.5 h is -11.8%.
With `Cc1cc(C)c2cc(C(=O)N3CCNC(=O)C3)[nH]c2c1`, the cytotoxicity at 70.5 h is -8%.
Regarding `COCCNCc1cc2c(C)cc(C)cc2n2c(=O)n(C)nc12`, the cytotoxicity at 70.5 h stood at 2.41%.
For `O=C(c1ccc(Cl)cc1)N1CC2(CCNC2)OCc2ccccc21` (stereo not drawn), the cytotoxicity at 70.5 h is -5.43%.
The figure for `COc1ccc(CC(=O)N2CCCC(c3nncn3C)C2)cc1` (stereo not drawn) is -2.88%.
On to `COCC(=O)N[C@H](C)c1onc(-c2ccccc2)c1C(=O)O`, for which the cytotoxicity at 70.5 h was -4.32%.
Consider `CC(C)N1CCC(N2CCCC(C(=O)NCC3(C)COC3)C2)CC1` (stereo not drawn), for which the cytotoxicity at 70.5 h was -3.7%.
On to `Cc1ncc(C(=O)N2CCCC2(C)C(=O)N2CCOCC2)c(C)n1` (stereo not drawn), for which the cytotoxicity at 70.5 h was -7.99%.
With `Cc1nn(C)cc1Cn1c(=O)ccc2ccccc21`, the cytotoxicity at 70.5 h is -3.85%.
Regarding `CSCCCN1C[C@H](NC(=O)c2cnn(C)c2)[C@@H](C2CC2)C1`, the cytotoxicity at 70.5 h is -7.31%.
Turning to `CCSc1cc(C(=O)NC2CCN(C(=O)c3ccccc3)CC2)ccn1`, the cytotoxicity at 70.5 h is -17.6%.
As to `Cc1nc2c(c(NC(C)C)n1)CCN(C1CCOCC1)CC2`, the cytotoxicity at 70.5 h turned out to be 2.46%.
For the molecule `Fc1cccc(N2CCc3ncnc(N4CCOCC4)c3CC2)c1`, the cytotoxicity at 70.5 h is -6.22%.
On to `Cc1nn(C)c(N(C)C)c1CNC(C)c1cccc(OC(C)C)c1` (stereo not drawn), for which the cytotoxicity at 70.5 h is -11.2%.
With `Cc1csc2c(=O)n(CCSc3cnn[nH]3)cnc12`, the cytotoxicity at 70.5 h was -7.83%.
Consider `CC(=O)NCc1ccc(S(=O)(=O)NC(=O)c2ccc3c(c2)CCO3)s1`, for which the cytotoxicity at 70.5 h was -2.05%.
For the molecule `O=C(N[C@@H]1CCC[C@@H](N2CCCC2)[C@@H]1O)c1cc2ccccc2[nH]1`, the cytotoxicity at 70.5 h is -8.28%.
For `O=C(c1ccc(SC(F)F)cc1)N1CCOCC1c1ncon1` (stereo not drawn), the cytotoxicity at 70.5 h is -3.71%.
For the molecule `Cc1cc(F)ccc1OC1(C(=O)O)CCN(Cc2nccn2C)CC1`, the cytotoxicity at 70.5 h was -7.09%.
Take `CCN(Cc1cccc(C(=O)Nc2ncc(C)s2)c1)[C@H]1COC[C@@H]1O`: the cytotoxicity at 70.5 h is -3.78%.
On to `COCCCC1CCCN(Cc2c(C)ccc3ncccc23)C1` (stereo not drawn), for which the cytotoxicity at 70.5 h came out at 6.57%.
As to `COc1cccc(CNC2CCSC2)c1OC` (stereo not drawn), the cytotoxicity at 70.5 h is -7.09%.
For `COc1ncccc1NC(=O)N1CCC(C(=O)NC(C)C)CC1`, the cytotoxicity at 70.5 h was -5.13%.
As to `COCCCNC1N=C(n2nc(C)cc2C)Nc2sc3c(c21)CCCC3` (stereo not drawn), the cytotoxicity at 70.5 h is 8.46%.
The figure for `CCn1cc(CN(C)S(=O)(=O)c2cnn(CC)c2C)c(C)n1` is 5.14%; for `Cc1cccc(-c2noc([C@@H]3C[C@@H](O)CN3Cc3ccc(CO)o3)n2)c1` it is 0.167%.
For the molecule `COc1cccc(NC(=O)NCc2cnn(C)c2)c1`, the cytotoxicity at 70.5 h was -7.74%.
For `O=C(C1=CCCC1)N1CCO[C@H]2[C@@H](Oc3ccccn3)CC[C@@H]21`, the cytotoxicity at 70.5 h is -0.715%.
Take `Cc1cnc(N2C[C@H]3CCN(CC4CC4)C[C@H]3C2)nc1`: the cytotoxicity at 70.5 h was 9.39%.
Turning to `Cc1c(COC(C)C)cccc1NC(=O)N1CCCC(CO)C1` (stereo not drawn), the cytotoxicity at 70.5 h is -3.17%.
The figure for `NC(=O)c1ccc(NC(=O)N2CCN(c3cccs3)CC2)c(F)c1` is -16.2%; for `C1CC(CN2CCCCC2C2OCCO2)C1` (stereo not drawn) it is 3.56%.
As for `Cc1ccc(N(C)Cc2nnnn2C2CC2)c(C)c1`, the cytotoxicity at 70.5 h is -5.96%.
Consider `CCNC(=O)[C@@H]1C[C@@H](N)CN1C(=O)CCc1ccc(C)c(C)c1`, for which the cytotoxicity at 70.5 h is -10.5%.
Turning to `Cc1cccc(CNC(Cn2cncn2)c2ccccc2)c1C` (stereo not drawn), the cytotoxicity at 70.5 h came out at 1.21%.
With `CC(C)c1csc(C2CCCN(C(=O)Cn3ccccc3=O)C2)n1` (stereo not drawn), the cytotoxicity at 70.5 h was found to be 23.3%.
For the molecule `CNC(=O)c1sc2ccccc2c1C1CCN(c2nc(C)cc(C)n2)C1` (stereo not drawn), the cytotoxicity at 70.5 h was -6.07%.
`O=C(NCc1ccccc1)N1CCn2c(Cn3cccn3)cnc2C1`: the cytotoxicity at 70.5 h was -2.08%.
As to `COCCN1CCC2(CC1)CC(NC(=O)COC)c1ccccc1O2` (stereo not drawn), the cytotoxicity at 70.5 h is -7.59%.
With `CCc1nc(C)c(C(=O)N2C[C@@H](C(=O)O)[C@H](C3CC3)C2)s1`, the cytotoxicity at 70.5 h is -4.51%.
In the case of `Cc1ccc(OCC(=O)N2CCOCC(O)(CN3CCCC3)C2)cc1C` (stereo not drawn), the cytotoxicity at 70.5 h was 27.8%.
Consider `O=C(CN1CCOC(Cn2cccn2)C1)NCCc1ccc(F)cc1` (stereo not drawn), for which the cytotoxicity at 70.5 h was -13.9%.
For `O=C(c1ccc(O)cc1)N1C[C@@H]2OCCN(c3ncccn3)[C@@H]2C1`, the cytotoxicity at 70.5 h was -10.7%.
The figure for `Cc1nc(CN2CCCN(C(=O)C3(C#N)CCCCC3)CC2)cs1` is -16.4%; for `Cc1nc(NC(=O)CN2CCc3c(nc(C(C)C)n3C)C2)sc1C` it is -7.61%.
With `CCOc1cccc(CNc2ccccc2C(F)(F)F)c1O`, the cytotoxicity at 70.5 h was 13.7%.
In the case of `Cc1ccsc1C(=O)N1CCCn2nnc(Cn3cccn3)c2C1`, the cytotoxicity at 70.5 h worked out at 9.85%.
For the molecule `CCCc1nc(N2CCN(CC)CC2)c2c(n1)c(C)nn2CC`, the cytotoxicity at 70.5 h was -5.26%.
For the molecule `Cc1cc(N2CCN(C(=O)C(C)n3ccnc3C(C)C)CC2)cc(C)n1` (stereo not drawn), the cytotoxicity at 70.5 h is -4.34%.
The figure for `COc1cc(N2CCN(CC3CC3)c3nc(C)ccc3C2)ncn1` is 0.313%; for `COc1cccc2c1OCC(Cc1ccc(N)nc1C)C2` (stereo not drawn) it is -1.03%.
Take `Fc1cccc(-c2noc3c2CN(Cc2cncn2C2CC2)CC3)c1`: the cytotoxicity at 70.5 h is -11.3%.
Consider `CC(C)n1ccnc1CNC(=O)c1cccc(CCC(C)(C)O)c1`, for which the cytotoxicity at 70.5 h is -10.5%.
For `COCC1COCCC12CCN(C(=O)CCOc1ccccc1)CC2` (stereo not drawn), the cytotoxicity at 70.5 h is -2.28%.
On to `COCC1CN(C(=O)COc2ccc(C)cc2)Cc2cn(C)nc21` (stereo not drawn), for which the cytotoxicity at 70.5 h was -2.9%.
The figure for `CCn1ncc2c1CCCC2NCc1ccccc1N1CCOCC1` (stereo not drawn) is 7.21%; for `COc1ccc(N2CCN(CC[C@H](O)c3ccccc3)CC2=O)cc1` it is -12.7%.
For `Cc1ccc2nc(C3CCCN3C(=O)c3cc(=O)[nH]c(=O)[nH]3)[nH]c2c1` (stereo not drawn), the cytotoxicity at 70.5 h came out at 30.8%.
As for `COc1ccc(OC)c(C(C)Nc2ncnc3c2NC(=O)CN3)c1` (stereo not drawn), the cytotoxicity at 70.5 h was -18.2%.

Source of the values: ChEMBL document CHEMBL3507680, “University of Dundee, Gates Library screen for HepG2 cell viability”.
